# From patent US20150118726A1, “Processes Using Antibiotic Alternatives In Bioethanol Production” (Buckman Laboratories International, Inc., priority 2010, published 2015)
# Columns and labels:
# Lactobacillus fermentans = experiment: MRS broth test of biocide combinations (Kull synergism method); type: cell-based; conditions: 25% MRS broth, 37° C., 24 hours
# Protocol: Lactobacilli MRS broth (25% strength) was prepared and dispensed in 10 ml amounts into test tubes and autoclaved for 20 minutes at 121° C. The biocides were added to the test tubes in the desired concentrations, and then 100 microliters of an overnight broth of Lactobacillus fermentans were added to the respective test tubes and incubated at 37° C. for 24 hours.
# QA/Qa+QB/Qb is less than 1.
# Qa=Concentration of Compound A in parts per million, acting alone, which produced an endpoint; Qb=Concentration of Compound B in parts per million, acting alone, which produced an endpoint; QA=Concentration of Compound A in parts per million, in the mixture, which produced an endpoint; QB=Concentration of Compound B in parts per million, in the mixture, which produced an endpoint.
# When the sum of QA/Qa and QB/Qb is greater than one, antagonism is indicated and when the sum is equal to one, additivity is indicated. When the sum of this value is less than one, synergism exists.
# L. plantarum = experiment: Corn mash ethanol fermentation infected with L. plantarum, treated with nonoxidizing biocide; type: cell-based, Lactobacillus plantarum; conditions: based on experimental results
# Protocol: (§1) Experiments were conducted to evaluate the effectiveness of a nonoxidizing biocide as an antimicrobial agent for control of Lactobacillus infections in ethanol fermentation. The nonoxidizing biocide was BRONAM® 20 (20% 2,2-dibromo-3-nitrilopropionamide). The lactobacilli was L. plantarum. The yeast was Saccharomyces cereviseae. Corn mashes containing approximately 30% (w/w) dry solids were used.
# For slurry preparation, the moisture of ground corn was determined gravimetrically using a moisture balance by measuring the mass loss that occurred upon drying. The amount of corn, deionized (DI) water, and enzyme needed to prepare 160 g of corn slurry at a total dry solids concentration of 30% (w/w) for each replicate was determined. […]
# For fermentation, once the mash was cooled, the entire contents (approximately 160 g) of each Labomat beaker were transferred to a sterile 250-ml Erlenmeyer flask. The masses of the mash and flasks were recorded, and the mass of mash transferred to the fermentation flasks was calculated. […]
# The L. plantarum culture was prepared for inoculation by growing throughout the day in 100-ml of MRS broth. […] The initial concentration of the bacteria was determined by plating serial dilutions of the culture on MRS agar containing cycloheximide and incubating at 32° C. for 2 days before counting colonies. […]
# Saccharomyces cereviseae = experiment: Corn mash ethanol fermentation: effect of biocide on yeast / fermentation progress; type: cell-based, Saccharomyces cerevisiae
# Protocol: as §1
# A 0.2-g/ml suspension of yeast (Saccharomyces cerevisiae; Ethanol Red; Fermentis, Marcq-en-Baroeul, France) was prepared in a sterile 250-ml flask. This suspension was incubated and mixed for 20 minutes at 40° C. before inoculation into the fermentation flasks. Each fermentation flask was inoculated with 160 μl of the yeast suspension to attain an initial concentration of 10^7 yeast cells/ml. After the initial 1-hr incubation with bacteria, the flasks were inoculated with yeast and dosed with BRONAM® 20. […]
# The mass of each flask was recorded after all additions were made, and the sanitized fermentation traps were reinserted into each flask. The mass of each flask with the trap in place was also recorded. […] The mass of each flask with the traps in place were measured periodically throughout fermentation to estimate the rate of fermentation (the mass of the fermentation flasks decreases when carbon dioxide is lost by bubbling out of the fermentation traps). […]
# [1] = Persistence of DBNPA under fermentation tank conditions; type: physicochemical; conditions: under the conditions in the fermentation tank, based on laboratory work
# Protocol: Under the conditions in the fermentation tank, DBNPA is expected to last intact only about 1-2 hours, based on laboratory work. The stillage, i.e., fermented unevaporated product (post “beer tank”) of distillation, is centrifuged, and dried (e.g., about 1 hour at about 250-300° F.), then the mixture is pumped over to a final tank where it is called the DDGS. DDGS is about ⅓ mass of the starting raw material for corn. The chemistry of DBNPA is not expected to endure and survive the centrifugation and heat of drying prior to entering distillers dried grains with solubles (DDGS) stage. In the corn-to-ethanol process, for example, DBNPA is expected to degrade to carbon dioxide and water vapor, and, as such, would have low environmental impact. […] The application of DBNPA avoids the use of antibiotics, which can remain stable throughout the process. The use of DBNPA makes the use of antibiotics unnecessary. The use of DBNPA is more economical since the cost of antibiotics (as the only treatment widely employed) can be relatively high and costly to the fermentation. […]
molecule,measurement,setting,value
"O=[N+]([O-])C(Br)(CO)CO [2-bromo-2-nitropropane-1,3-diol]","Qb, concentration of Compound B acting alone which produced an endpoint",Lactobacillus fermentans; Example 2,50 ppm
"N#CC(Br)(Br)C(N)=O [2,2-dibromo-3-nitrilopropionamide]",effect on bacteria (lactobacilli),L. plantarum,kills the bacteria
same,effect on yeast involved in fermentation,Saccharomyces cereviseae,does not kill the yeast
same,"Qb, concentration of Compound B acting alone which produced an endpoint",Lactobacillus fermentans; Example 3,100 ppm
same,time DBNPA lasts intact,[1],1 to 2 h
Nisin,"Qa, concentration of Compound A acting alone which produced an endpoint",Lactobacillus fermentans; Example 2,1.0 ppm
same,"Qa, concentration of Compound A acting alone which produced an endpoint",Lactobacillus fermentans; Example 3,1.0 ppm
